Reference: PMC8279484 (Journal of Medicinal Chemistry, 2021)

Columns and labels:
Assay type in all cases: cell-based, human
NF-κB = test: LPS-induced NF-κB-driven luciferase gene reporter assay in THP-1 Lucia monocytes; details: for Rel. Slope: HS relative to LXA4 (1); for IC50: Homo sapiens, THP-1, read-out: Potency IC50; for Potency Rel. Pot.: IC50 relative to LXA4 (1); for Efficacy Rel. Eff.: Imax relative to LXA4 (1); for reduction of LPS-induced NF-κB-driven luciferase activity: approximate extent; for reduction of LPS-induced NF-κB-driven luciferase activity / Imax (%): 1 pM–1 μM; for Imax (%): maximal % inhibition of LPS (50 ng/mL)-stimulated NF-κB luciferase activity, 30 min pretreatment; for (Single component) Rel. Score: Rel. Pot. / (Single component) Rel. Score: Rel. Sl.: score relative to LXA4 (1); for (Aggregate) Rel. PD Score: sum of efficacy, potency, slope scores relative to LXA4 (1)
Description: Mycoplasma-free THP-1-Lucia NF-κB cells were grown in an RPMI 1640 (Gibco) medium containing 2 mM L-glutamine, 1.50 g/L sodium bicarbonate, 4.50 g/L glucose, 10 mM N-(2-hydroxyethyl)piperazine-N′-ethanesulfonic acid (HEPES), and 1 mM sodium pyruvate. Then, 10% heat-inactivated fetal bovine serum (FBS) (30 min at 56 °C), 100 μg/mL Normocin, and Pen-Strep (50 U/mL to 50 μg/mL) were also added to the growth media. As THP-1-Lucia cells were resistant to Zeocin, the latter was used as a selective antibiotic (a high dose, i.e., 100 μg/mL, was alternated every 2 weeks with a low dose, i.e., 10 μg/mL).
(§1) LXA41 and all of the tested sLXms were dissolved in ethanol and further diluted in a culture medium (final ethanol concentration 0.1%; equivalent concentrations were used as the vehicle control). Prior to in vitro experiments, THP-1-Lucia NF-κB cells were harvested and plated at 1 × 10^5 cells/well on 96-well plates and left to settle in the incubator at 37 °C, 95% humidity, and 5% CO2, in 0.1% FBS-containing media, pretreated for 30 min with increasing doses of LXA41, sLXms (from 10^–12 to 10^–6 M), or appropriate controls, followed by stimulation with 50 ng/mL LPS for 24 h.
NFκB activity was monitored in the human THP-1 monocytic leukemia cell line containing a stably integrated NF-κB-inducible Lucia reporter construct (as previously reported).[21] When stimulated with LPS, the transcription factor NF-κB is activated, upregulating the synthesis of proinflammatory mediators, thus bringing about an inflammatory response. In these cells, NF-κB activation is linked to a […] luciferase gene and can be measured using luminescence.
Heat-killed listeria monocytogenes (HKLM) (10^8/mL) was used as a positive control.[28] The levels of NF-κB-induced Luciferase were then measured in a culture supernatant using QUANTI-Luc as the detection reagent, and measurements were taken on a bioluminescence reader.
After 24 h, the levels of NF-κB-induced Lucia were assayed in a cell culture supernatant using QUANTI-Luc, as a detection reagent, on a bioluminescence reader (Synergy HT, BioTek Instruments, Inc. Vermont). Aliquots of the supernatant were retained for subsequent cytokine and LDH assays. Cellular proteins were extracted with a radioimmunoprecipitation assay (RIPA) buffer (Thermo Fisher, Ireland), supplemented with protease inhibitors (Sigma-Aldrich, Ireland). Lysates were clarified by centrifugation (3200g, 10’, 4 °C) to remove cell debris, and the cell protein level was quantified by performing a bicinchoninic acid (BCA) assay (as per the manufacturer’s instructions) reading the protein absorbance at 570 nm, using a spectrophotometer (SPECTRAMAX M2, Molecular Devices (U.K.) Limited). A “relative luminescence unit” (RLU) was obtained using the average value of the lum/abs ratio of two replicates.
The “coding” of the heat-map indicates the arbitrary criteria to assign points to each single PD component (efficacy = Imax or Emax; potency = IC50 or EC50; slope = HS) to generate a final (aggregate) relative PD score. […] If a single PD component was equal to the reference level (x = 1), then the single-component relative score was arbitrarily set to 0 (gray). If a single PD component was smaller than the reference level (x < 1), then the single-component relative score was arbitrarily set to −1 (light red) or −2 (dark red). If the curve of a single PD component was best fitting to a flat line (x = 0), then the single-component relative score was arbitrarily set to −4 (purple) (Table S1).

IFNγ = test: LPS-induced IFNγ release from THP-1 Lucia monocytes (multiplex electrochemiluminescence)
Description: as §1, with “h. Untreated (Unt) or vehicle-treated (Veh) cells were used as negative controls; 1 pM (1R)-5, the (1R)-epimer of the benzo-mimetic, was used as a positive control for any aromatic mimetic; and, finally, we compared the observed effects to the conventional glucocorticoid dexamethasone (Dex) treatment, at 1 μM.” for “h.”
(§2) After 24 h of exposure to LXA41, sLXms, or vehicle, followed by LPS stimulation (50 ng/mL), as described above, THP-1-Lucia NF-κB-cell supernatants were collected and cleared by centrifugation. Concentrations of IFN-γ, IL-1β, IL-6, IL-8, IL-10, IL-12p70, and TNF-α in culture supernatants were assessed by electro-chemi-luminescent detection, using a commercially available human 96-well plate “multiplex” (several analytes in the same well) kit for tissue culture samples, according to the manufacturers’ guidelines.
(§3) The “coding” of the heat-map indicates the arbitrary criteria to assign points to each single PD component (efficacy = Imax or Emax; potency = IC50 or EC50; slope = HS) to generate a final (aggregate) relative PD score. If a single PD component was greater than the reference level (x > 1), then the single-component relative score was arbitrarily set to +1 (light green) or +2 (dark green). If a single PD component was equal to the reference level (x = 1), then the single-component relative score was arbitrarily set to 0 (gray). If a single PD component was smaller than the reference level (x < 1), then the single-component relative score was arbitrarily set to −1 (light red) or −2 (dark red). If the curve of a single PD component was best fitting to a flat line (x = 0), then the single-component relative score was arbitrarily set to −4 (purple) (Table S1).

THP-1 LUCIA monocytes [1] = test: Intrinsic cytotoxicity: LDH release without LPS; details: for Intrinsic Toxicity Level: LDH-associated level of cytotoxicity (high / moderate / low); for Intrinsic Toxicity TC50 (pM): half-maximal intrinsic LDH-associated toxic activity, no LPS
Description: We investigated the potential cytotoxicity of all candidate sLXms by assaying LDH release.[50] The response to LPS was arbitrarily set to 100%, and values were expressed relative to this. As previously reported by others, LPS provokes LDH release.[51] […] Ultimately, untreated cells defined the spontaneous cell release thresholds.
Lactate dehydrogenase (LDH) was assayed in cell supernatants to investigate possible cytotoxicity of the lead compound. LDH is rapidly released into the culture medium after disruption of the plasma membrane.[67],[69] After 24 h of exposure to sLXms, vehicle, or controls, followed by LPS stimulation, as described above, THP-1-Lucia NF-κB-cell supernatants were collected and LDH was assayed. Cytotoxicity was evaluated relative to vehicle controls. Maximum releasable LDH was determined in cells lysed with 2% Triton-X-100 (Sigma-Aldrich, Ireland). LDH levels were assessed by reading the absorbance at 490 nm (protein) and 690 nm (background noise), using a spectrophotometer (SPECTRAMAX M2, Molecular Devices (U.K.) Limited).

THP-1 LUCIA monocytes [2] = test: In vitro safety study: Safety index (Si), activity versus toxicity; details: for IC50: Homo sapiens, THP-1, highest IC50 among the LPS-challenged assays (NF-κB activity, cytokine, LDH release), read-out: Extrinsic Activity hIC50; for Safety Index TC50/IC50: ratio of intrinsic TC50 to extrinsic hIC50
Description: A postanalysis “safety study” was conducted on all QNX-sLXms. For each tested compound, we calculated an in vitro “Safety index” (Si) by relating its “anti-inflammatory half-maximal activity” (the highest dose among the IC50 of the extrinsic LPS-challenged phenotype: NF-κB activity, proinflammatory cytokine, and LDH release) to its intrinsic “toxicity” (expressed as the relative half-maximal LDH-associated cytotoxicity). The generated Si is potentially predictive of a translational “therapeutic” range: the higher the Si, the safer the molecule is. As summarized in Table S4, Si values from all tested compounds fall in a broad range (7–50).

IL-6 = test: LPS-induced IL-6 release from THP-1 Lucia monocytes (multiplex electrochemiluminescence)
Description: as §1, with “h. Untreated (Unt) or vehicle-treated (Veh) cells were used as negative controls; 1 pM (1R)-5, the (1R)-epimer of the benzo-mimetic, was used as a positive control for any aromatic mimetic; and, finally, we compared the observed effects to the conventional glucocorticoid dexamethasone (Dex) treatment, at 1 μM.” for “h.”
as §2, §3

IL-1β = test: LPS-induced IL-1β release from THP-1 Lucia monocytes (multiplex electrochemiluminescence)
Description: as §1, with “h. Untreated (Unt) or vehicle-treated (Veh) cells were used as negative controls; 1 pM (1R)-5, the (1R)-epimer of the benzo-mimetic, was used as a positive control for any aromatic mimetic; and, finally, we compared the observed effects to the conventional glucocorticoid dexamethasone (Dex) treatment, at 1 μM.” for “h.”
as §2, §3

[3] = Homo sapiens, THP-1, LPS 50 ng/mL, 24 h
[4] = concentration–response, LPS 50 ng/mL, 24 h

| SMILES | Rel. Slope (NF-κB) | IC50 (NF-κB; LPS 50 ng/mL, 24 h) | Potency Rel. Pot. (NF-κB) | Efficacy Rel. Eff. (NF-κB) | reduction of LPS-induced NF-κB-driven luciferase activity (NF-κB) | Imax (%) (NF-κB; 24 h) | (Single component) Rel. Score: Rel. Pot. (NF-κB) | (Single component) Rel. Score: Rel. Sl. (NF-κB) | (Aggregate) Rel. PD Score (NF-κB) | Intrinsic Toxicity Level (THP-1 LUCIA monocytes [1]) | Intrinsic Toxicity TC50 (pM) (THP-1 LUCIA monocytes [1]) | IC50 (THP-1 LUCIA monocytes [2]) | Safety Index TC50/IC50 (THP-1 LUCIA monocytes [2]) | also measured |
| --- | --- | --- | --- | --- | --- | --- | --- | --- | --- | --- | --- | --- | --- | --- |
| CCCCCCC[C@@H](O)c1nc2ccccc2nc1/C=C/[C@@H](O)[C@@H](O)CCCC(=O)OC [(R)-8, Methyl (5S,6R,E)-5,6-Dihydroxy-8-(3-((R)-1-hydroxyoctyl)quinoxalin-2-yl)oct-7-enoate] | 0.49 | 0.04 nM | 1.5 | 0.96 | 10–20% | 23 ± 7% | 1 (1 < x < 5) | -1 (0.01 < x < 1) | 0 | Low-Mod. | 10,000 pM | 0.2 nM | 50 | IC50 (range in words) (NF-κB; LPS 50 ng/mL, 24 h): “pM” range; PD score, IFNγ release (IFNγ; relative to LXA4 (1)): negative PD scores |
| CCCCC[C@H](O)c1nc2ccccc2nc1/C=C/[C@@H](O)[C@@H](O)CCCC(=O)OC [(S)-6, Methyl (5S,6R,E)-5,6-Dihydroxy-8-(3-((S)-1-hydroxyhexyl)quinoxalin-2-yl)oct-7-enoate] | 0.47 | – | – | 1.42 | 25–35% | 34 ± 9% | – | 1 (1 < x < 10) | – | Low-Mod. | 200 pM | 0.02 nM | 10 | IC50 (IL-6; [3]): 0.001 nM; Imax, IL-6 release (IL-6; [4]): 98 ± 1%; PD score, IL-6 release (IL-6; relative to LXA4 (1)): +2; rel. slope, IL-6 release (IL-6; relative to LXA4 (1)): 2.4; Imax, IL-1β release (IL-1β; [4]): completely lost the protective effect; PD score, IL-1β release (IL-1β; relative to LXA4 (1)): −6; IC50 (IFNγ; [3]): 2 nM; Imax, IFNγ release (IFNγ; [4]): 74 ± 4% |
| CCCCC[C@H](O)c1nc2ccccc2nc1/C=C/[C@H]1OC(C)(C)O[C@H]1CCCC(=O)OC [(S)-17, Methyl 4-((4S,5R)-5-((E)-2-(3-((S)-1-Hydroxyhexyl)quinoxalin-2-yl)vinyl)-2,2-dimethyl-1,3-dioxolan-4-yl)butanoate] | 0 | 0.003 nM | 24 | 0.79 | least effective | 19 ± 3% | 2 (x ≥ 5) | -4 (x = 0) | -3 | – | 100 pM | 0.003 nM | 33 | Slope HS (Hill–Slope) (NF-κB; slope of concentration–response curve): 0 |
